Legend:
Sphaerotheca fuliginea = assay: In vivo preventive test on Sphaerotheca fuliginea (powdery mildew on cucurbits); details: Podosphaera fuliginea, 288 h, 500 ppm of active ingredient; gherkin plants; 12 days after contamination; read-out: Efficacy
Outline: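 Gherkin plants ("Vert petit de Paris") grown at 24 °C were sprayed at cotyledon stage Z11; controls received acetone/tween/DMSO/water without active. Inoculation 24 h later by spraying cotyledons with 100 000 spores/mL. Efficacy (%) graded 12 days post-contamination versus controls.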

Botrytis cinerea = assay: In vivo preventive test on Botrytis cinerea (grey mould); details: 500 ppm of active ingredient; gherkin plants; 4 to 5 days after contamination
Outline: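 Gherkin plants at cotyledon stage Z11 were sprayed with compound, then inoculated 24 h later with Botrytis cinerea spores (50 000 spores per mL in nutrient solution). Plants were kept at 17° C and 90% RH, and percent efficacy versus solvent-treated controls was graded 4 to 5 days after contamination.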

Alternaria brassicae = assay: In vivo preventive test on Alternaria brassicae (leaf spot on radish); details: 500 ppm of active ingredient; radish plants; 6 days after contamination
Outline: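 Radish plants at cotyledon stage were sprayed with compound; controls got the acetone/tween/DMSO/water mix alone. After 24 h they were inoculated with Alternaria brassicae spores (50 000 spores per mL) and kept at 20 °C, 100% relative humidity. % efficacy versus controls was graded 6 days post-inoculation.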

Uromyces appendiculatus = assay: In vivo preventive test on Uromyces appendiculatus (bean rust); details: 500 ppm of active ingredient; bean plants; 11 days after contamination
Outline: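 Saxa bean plants at 2-leaf stage, grown at 24° C., sprayed preventively with compound; 24 h later inoculated with U. appendiculatus spores (150 000 spores per mL). Percent efficacy graded 11 days after inoculation versus solvent-treated controls.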

[1] = tested on: Blumeria graminis f.sp. hordei; assay: In vivo preventive test on Blumeria graminis (barley); details: 500 ppm of active ingredient, evaluated 7 days after inoculation
Protocol: In Vivo Preventive Test on Blumeria graminis (Barley) [table] To produce a suitable preparation of active compound, 1 part by weight of active compound or active compound combination is mixed with the stated amounts of solvent and emulsifier, and the concentrate is diluted with water to the desired concentration. To test for preventive activity, young plants are sprayed with the preparation of active compound or active compound combination at the stated rate of application. After the spray coating has been dried, the plants are dusted with spores of Blumeria graminis f.sp. hordei.

[2] = log P by HPLC on a reversed-phase column (C 18), EEC Directive 79/831 Annex V.A8; type: physicochemical; details: logP
Outline: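 Calibration relied on straight-chain alkan-2-ones with 3 to 16 carbon atoms and known log P, with sample values read by linear interpolation of retention time between two adjacent standards. Separation at 40° C used 0.1% aqueous formic acid with acetonitrile rising linearly from 10% to 90%. UV spectra from 200 nm to 400 nm at chromatographic peak maxima gave lambda-max.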

Septoria tritici = assay: In vivo preventive test on Septoria tritici (wheat); details: 500 ppm of active ingredient; wheat plants; 24 days after contamination
Outline: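 Scipion wheat grown at 22° C, sprayed at 1-leaf stage (10 cm); controls received acetone/tween/DMSO/water without active. Inoculated 24 h later with S. tritici spores (500 000/mL), held 72 h at 18° C, 100% RH, then 21 days at 90% RH. % efficacy vs controls scored 24 days post-inoculation.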

Venturia inaequalis = assay: In vivo preventive test on Venturia inaequalis (apples); details: 100 ppm of active ingredient, evaluated 10 days after inoculation
Protocol: In Vivo Preventive Test on Venturia inaequalis (apples) [table] To produce a suitable preparation of active compound, 1 part by weight of active compound is mixed with the stated amounts of solvent and emulsifier, and the concentrate is diluted with water to the desired concentration. To test for preventive activity, young plants are sprayed with the preparation of active compound at the stated rate of application. After the spray coating has dried on, the plants are inoculated with an aqueous conidia suspension of the causal agent of apple scab (Venturia inaequalis) and then remain for 1 day in an incubation cabinet at approximately 20° C. and a relative atmospheric humidity of 100%. The plants are then placed in a greenhouse at approximately 21° C. and a relative atmospheric humidity of approximately 90%.

chromatographic logP [2]: 5.17
SMILES: CC(C)c1ccc(-c2csc3ccccc23)cc1CN(C(=O)c1c(C(F)F)nn(C)c1F)C1CC1 [I.157, N-[5-(1-benzothiophen-3-yl)-2-isopropylbenzyl]-N-cyclopropyl-3-(difluoromethyl)-5-fluoro-1-methyl-1H-pyrazole-4-carboxamide]
pest or weed control at 500 ppm (Sphaerotheca fuliginea): 100%
Efficacy (Botrytis cinerea): 100%
Efficacy (Alternaria brassicae): 100%
Efficacy (Uromyces appendiculatus): 100%
Efficacy [1]: 100%
Efficacy (Septoria tritici): 90%
Efficacy (Venturia inaequalis): 100%

— US10125126B2, “N-cycloalkyl-N-[(heterocyclylphenyl)methylene]-(thio)carboxamide derivatives” (BAYER CROPSCIENCE AG, priority 2012, dated 2018)
